Data from patent publication USRE48461E1, “Modulation of androgen receptor expression” (Ionis Pharmaceuticals, Inc., priority 2012, dated 2021).

Assays:
Type in all cases: cell-based, human
[1] = test system: 22RV1 cells; assay: 22RV1 cell proliferation with/without DHT (MTT); settings: RNAiMAX, 5 days
Protocol: 22RV1cells were plated at 1,500 cells per well. […] Separate sets of cells, also treated with each of the antisense oligonucleotides, were treated with DHT added on day 1 at a final concentration of 1 nM. After a treatment period of 5 days, the proliferative ability of the cancer cells was measured using the standard MTT assay. Results are presented in Table 69 as percent inhibition of proliferation, relative to non-treated cells.

[2] = test system: TMPRSS2 mRNA; assay: Time-course TMPRSS2 expression in C4-2B cells
Protocol: C4-2B cells were plated at 1,000 cells per well in complete medium. […] ISIS 549148 was included as a negative control. […] After a treatment period of 8 hours, 24 hours, and 48 hours, AR expression was measured with primer probe set hAR-LTS00943. Results are presented in Tables 70-72 as percent expression of AR, relative to non-treated cells.
Expression analysis of prostate-specific antigen (PSA) and TMPRSS2 were also analyzed. Results are presented in Tables 73-75 as percent inhibition of PSA expression and Tables 76-78 as percent inhibition of TMPRSS2 expression, relative to non-treated cells.

[3] = test system: PSA mRNA; assay: PSA expression in LNCaP cells (complete, CSS+DHT medium); settings: for Percent inhibition of PSA expression in LNCaP cells cultured in CSS + DHT medium: CSS + DHT (1 nM) medium, 48 hrs; for Percent inhibition of PSA expression in LNCaP cells cultured in complete medium: 48 hours
Protocol: Cells were plated at 1,000 cells per well. […] ISIS 549148 was included as a negative control. […] After an incubation period of 48 hours, RNA levels of AR, PSA and TMPRSS2 were measured.
Cells were plated at 2,000 cells per well and cultured in phenol red-free RPMI supplemented with 5% charcoal stripped serum (Gibco) media for 16 hours. […] ISIS 549148 was included as a negative control. […] After an incubation period of 4 hrs, DHT was added to the medium to a final concentration of 1 nM as indicated. RNAs were collected 48 hrs later and levels of AR, PSA and TMPRSS2 were measured. In the absence of DHT, AR expression in LNCaP cells was 95%, PSA expression was 7% and TMPRSS2 expression was 24% compared to the untreated control.

[4] = test system: full length AR mRNA; assay: Full-length AR RNA in VCaP cells (complete, CSS+DHT medium); settings: RNAiMax, 48 hrs
Protocol: Cells were plated at 10,000 cells per well. […] After an incubation period of 48 hrs, RNA levels of full length AR, the V7 variant, PSA and TMPRSS2 were measured.
After an incubation period of 48 hrs, RNA levels of full length AR, the V7 variant, PSA and TMPRSS2 were measured. The data is presented in Tables 108 expressed as percent expression of gene levels compared to the untreated control.
Cells were plated at 15,000 cells per well and cultured in CSS media for 16 hours. […] After 4 hrs, 1 nM DHT was added. […] After an incubation period of 48 hrs, RNA levels of AR, PSA and TMPRSS2 were measured.

[5] = test system: VCaP cells; assay: VCaP apoptosis (Caspase-Glo 3/7); settings: VCaP cells, complete medium, 72 hours
Protocol: After a treatment period of 72 hours in complete medium, apoptosis of the cancer cells was measured with Caspase-Glo 3/7 assay (Promega). Results are presented in Tables 117 and 118 as percent apoptosis of the cells, relative to non-treated cells.

[6] = test system: 22RV1 cells; assay: 22RV1 cell proliferation (Example 32); settings: 22RV1 cells, complete medium, 5 days
Protocol: After a treatment period of 5 days in complete medium, the proliferative capacity of the cancer cells was measured with using CellTiter 96® AQueous One or CellTiter-Glo® Solution Cell Proliferation kit (Promega), following the manufacturer's instructions. […] Treatment with ISIS oligonucleotides in CSS+DHT medium reduced the proliferative capacity to a greater extent than treatment with MVD-3100. The proliferative capacity of cells cultured in CSS medium without DHT is 12% of untreated control levels.

Sequence: GGCTACTACGCCGTCA (3-10-3 (S)-cEt gapmer, chemistry not fully specified) [ISIS 549148, reference compound]
- Percent inhibition of 22RV1 cell proliferation ([1]; +DHT (1 nM), ASO 1.34 nM): 0%
- Percent inhibition of 22RV1 cell proliferation ([1]; +DHT (1 nM), ASO 4.0 nM): 0%
- Percent inhibition of 22RV1 cell proliferation ([1]; +DHT (1 nM), ASO 13.4 nM): 3%
- Percent inhibition of 22RV1 cell proliferation ([1]; +DHT (1 nM), ASO 40.0 nM): 0%
- Percent inhibition of 22RV1 cell proliferation ([1]; −DHT, ASO 1.34 nM): 0%
- Percent inhibition of 22RV1 cell proliferation ([1]; −DHT, ASO 4.0 nM): 0%
- Percent inhibition of 22RV1 cell proliferation ([1]; −DHT, ASO 13.4 nM): 4%
- Percent inhibition of 22RV1 cell proliferation ([1]; −DHT, ASO 40.0 nM): 0%
- Percent inhibition of TMPRSS2 expression compared to the control group in 8 hours ([2]; 0.04 μM): 5%
- Percent inhibition of TMPRSS2 expression compared to the control group in 24 hours ([2]; 0.04 μM): 29%
- Percent inhibition of TMPRSS2 expression compared to the control group in 48 hours ([2]; 0.04 μM): 0%
- Percent inhibition of TMPRSS2 expression compared to the control group in 8 hours ([2]; 0.2 μM): 0%
- Percent inhibition of TMPRSS2 expression compared to the control group in 24 hours ([2]; 0.2 μM): 10%
- Percent inhibition of TMPRSS2 expression compared to the control group in 48 hours ([2]; 0.2 μM): 4%
- Percent inhibition of TMPRSS2 expression compared to the control group in 8 hours ([2]; 1 μM): 0%
- Percent inhibition of TMPRSS2 expression compared to the control group in 24 hours ([2]; 1 μM): 29%
- Percent inhibition of TMPRSS2 expression compared to the control group in 48 hours ([2]; 1 μM): 0%
- Percent inhibition of TMPRSS2 expression compared to the control group in 8 hours ([2]; 5.0 μM): 0%
- Percent inhibition of TMPRSS2 expression compared to the control group in 24 hours ([2]; 5.0 μM): 10%
- Percent inhibition of TMPRSS2 expression compared to the control group in 48 hours ([2]; 5.0 μM): 0%
- Percent inhibition of PSA expression in LNCaP cells cultured in CSS + DHT medium ([3]; 0.04 μM): 0%
- Percent inhibition of PSA expression in LNCaP cells cultured in CSS + DHT medium ([3]; 0.2 μM): 8%
- Percent inhibition of PSA expression in LNCaP cells cultured in CSS + DHT medium ([3]; 1 μM): 0%
- Percent inhibition of PSA expression in LNCaP cells cultured in CSS + DHT medium ([3]; 5.0 μM): 9%
- Percent inhibition of PSA expression in LNCaP cells cultured in complete medium ([3]; 0.04 μM): 0%
- Percent inhibition of PSA expression in LNCaP cells cultured in complete medium ([3]; 0.2 μM): 0%
- Percent inhibition of PSA expression in LNCaP cells cultured in complete medium ([3]; 1 μM): 0%
- Percent inhibition of PSA expression in LNCaP cells cultured in complete medium ([3]; 5.0 μM): 0%
- Percent inhibition of full-length AR ([4]; CSS medium, 1.34 nM): 0%
- Percent inhibition of full-length AR ([4]; CSS medium, 4.0 nM): 0%
- Percent inhibition of full-length AR ([4]; CSS medium, 13.4 nM): 0%
- Percent inhibition of full-length AR ([4]; CSS medium, 40 nM): 0%
- Percent inhibition of full-length AR ([4]; complete medium, 1.34 nM): 0%
- Percent inhibition of full-length AR ([4]; complete medium, 4.0 nM): 8%
- Percent inhibition of full-length AR ([4]; complete medium, 13.4 nM): 5%
- Percent inhibition of full-length AR ([4]; complete medium, 40 nM): 17%
- Apoptosis (% untreated control) ([5]; 1.34 nM): 131 % untreated control
- Apoptosis (% untreated control) ([5]; 4.0 nM): 108 % untreated control
- Apoptosis (% untreated control) ([5]; 13.4 nM): 103 % untreated control
- Apoptosis (% untreated control) ([5]; 40 nM): 146 % untreated control
- Proliferation (% untreated control) ([6]; 1.34 nM): 97 % untreated control
- Proliferation (% untreated control) ([6]; 4.0 nM): 97 % untreated control
- Proliferation (% untreated control) ([6]; 13.4 nM): 101 % untreated control
- Proliferation (% untreated control) ([6]; 40 nM): 83 % untreated control
